In brackets after ≈: the same amount, converted by molar mass.
System: SK-MEL
Experiment: Cytotoxicity against human SK-MEL cells after 48 hrs by neutral red staining
Type: functional, cell-based

Compound: C[C@H]1CC[C@@]2(OC1)O[C@H]1C[C@H]3[C@@H]4CC[C@@H]5C[C@@H](O[C@@H]6O[C@H](CO)[C@H](O[C@@H]7O[C@H](CO)[C@@H](O)[C@H](O)[C@H]7O)[C@H](O)[C@H]6O[C@@H]6O[C@@H](C)[C@H](O)[C@@H](O)[C@H]6O)CC[C@]5(C)[C@H]4CC[C@]3(C)[C@H]1[C@@H]2C
- IC50: 6.7 µg/mL (≈ 7.55 µM)

— ChEMBL document CHEMBL1154992, “New steroidal glycosides from the fruits of Tribulus terrestris” (J Nat Prod, 2000)
